The subject of assay [1] is Amyloid-β peptide release (Aβ42), HEK cells overexpressing APP (HEK-APP). Kind of assay: Amyloid-β peptide release (Aβ42) assay, AlphaLISA on supernatant of HEK-APP cells. The format is cell-based. The settings on record: Homo sapiens, HEK293, 24 h incubation with compound, read-out: Ab42 IC50 Ranges. The method, then: (§1) Amyloid-β Peptide Release (Aβ42 & AβTotal) Assay to Determine IC50 Values.
(§2) Compounds are dissolved in and diluted in 100% DMSO and incubated with HEK-APP cells for 24 h at 37° C. in 5% CO2. The supernatant from HEK-APP cells are mixed with antibodies: for Aβ42 detection: AlphaLISA Amyloid-β 1-42 Kit (Perkin Elmer AL203L) Anti-Amyloid β1-42-specific antibody acceptor beads, biotinylated anti-Amyloid-“β1-42” antibody and streptavidin (SA) donor beads diluted in AlphaLISA buffer (to the instructions of the supplier). For Aβ total detection: Custom Anti-Amyloid-βtotal acceptor beads (6E10 acceptor beads), biotinylated anti-Amyloid “β1-42” antibody (Perkin Elmer AL203L) and streptavidin (SA) donor beads diluted in AlphaLISA buffer (to the instructions of the supplier). After addition of supernatant to the antibody mix, the assay is incubated for 4.5 h. Amyloid-β peptide release (Aβ42 & AβTotal) is measured with a Pherastar FS (BMG) multimode reader using the alphascreen module.
A general note: Bead proximity is the source of the signal in Alpha formats.

Assay [2] concerns Amyloid-β peptide release (AβTotal), HEK cells overexpressing APP (HEK-APP). Description: Amyloid-β peptide release (AβTotal) assay, AlphaLISA on supernatant of HEK-APP cells. The class given is cell-based. The note with it: ratio Abtot vs Ab42, HEK-APP cells, 24 h. The method, then: as §1, §2

Results on 11 compounds are retold here after US9932354B2, “Imidazo-oxadiazole and imidazo-thiadiazole derivatives” (Ares Trading S.A., priority 2012, dated 2018).

For orientation: IC50 means the midpoint of a concentration-inhibition curve.

Structures are written as SMILES.

As to `Cc1nc(C)n2nc(-c3ccc(C(=O)NCc4cccc5ccccc45)cc3)oc12` [Example 22, 4-(5,7-Dimethyl-imidazo[5,1-b][1,2,4]oxadiazol-2-yl)-N-naphthalen-1-ylmethyl-benzamide], the concentration for half-maximal inhibition (IC50) in assay [1] lay within 500 to 1000 nM. Besides, the Abtot/Ab42 selectivity ranges result in assay [2] is listed as “c (c: 50 fold > selectivity ≥ 10 fold)”.
In the case of `Cc1ncc2oc(-c3ccc(Nc4nc5c(s4)CCCC5c4ccc(F)cc4)cc3)nn12` (stereo not shown) [Example 27, [4-(4-Fluoro-phenyl)-4,5,6,7-tetrahydro-benzothiazol-2-yl]-[4-(5-methyl-imidazo[5,1-b][1,2,4]oxadiazol-2-yl)-phenyl]-amine], the half-inhibitory concentration (IC50) in assay [1] was 1000 to 2200 nM. The Abtot/Ab42 selectivity ranges result in assay [2] is recorded as “d (d: 10 fold > selectivity)”.
The matching figures for `Cc1ncc2oc(-c3ccc(NC(=O)Cc4cccc(C(F)(F)F)c4)cc3)nn12` [Example 3, N-[4-(5-Methyl-imidazo[5,1-b][1,2,4]oxadiazol-2-yl)-phenyl]-2-(3-trifluoromethyl-phenyl)-acetamide]: 1000 to 2200 nM and “c (c: 50 fold > selectivity ≥ 10 fold)”.
The corresponding values for `Cc1ncc2sc(C(=O)NCCc3c[nH]c4ccccc34)nn12` [Example 94, 5-Methyl-imidazo[5,1-b][1,3,4]thiadiazole-2-carboxylic acid [2-(1H-indol-3-yl)-ethyl]-amide] are 500 to 1000 nM and “d (d: 10 fold > selectivity)”.
On to `Cc1ncc2oc(-c3ccc(Nc4nccc(NCc5cccc(C(F)(F)F)c5)n4)cc3)nn12` [Example 76, N2-(4-(5-methylimidazo[5,1-b][1,3,4]oxadiazol-2-yl)phenyl)-N4-(3-(trifluoromethyl)benzyl) pyrimidine-2,4-diamine], for which the IC50 in assay [1] was in the range of 1000 to 2200 nM. Moreover, the Abtot/Ab42 selectivity ranges result in assay [2] is “d (d: 10 fold > selectivity)”.
Consider `COc1cc(C(=O)NCc2cccc(C(F)(F)F)c2)ccc1-c1nn2c(C)ncc2o1` [Example 18, 3-Methoxy-4-(5-methyl-imidazo[5,1-b][1,2,4]oxadiazol-2-yl)-N-(3-trifluoromethyl-benzyl)-benzamide], for which the half-inhibitory concentration (IC50) in assay [1] was in the range of 1000 to 2200 nM. Moreover, the Abtot/Ab42 selectivity ranges entry in assay [2] is reported as “c (c: 50 fold > selectivity ≥ 10 fold)”.
On to `Cc1nc(C)n2nc(-c3ccc(C(=O)NCc4ccccc4C(F)(F)F)cc3)oc12` [Example 23, 4-(5,7-Dimethyl-imidazo[5,1-b][1,2,4]oxadiazol-2-yl)-N-(2-trifluoromethyl-benzyl)-benzamide], for which the IC50 in assay [1] was 1000 to 2200 nM. For the same compound, the Abtot/Ab42 selectivity ranges result in assay [2] is “c (c: 50 fold > selectivity ≥ 10 fold)”.
As for `Cc1ncc2oc(-c3ccc(NC(=O)Cc4ccccc4C(F)(F)F)cc3)nn12` [Example 1, N-[4-(5-Methyl-imidazo[5,1-b][1,2,4]oxadiazol-2-yl)-phenyl]-2-(2-trifluoromethyl-phenyl)-acetamide], in assay [1], the IC50 was 500 to 1000 nM. In addition, the Abtot/Ab42 selectivity ranges entry in assay [2] is “b (b: 100 fold > selectivity ≥ 50 fold)”.
For the compound `COc1cc(NC(=O)Cc2ccc(OC(F)(F)F)cc2)ccc1-c1nn2c(C)ncc2o1` [Example 34, N-(3-methoxy-4-(5-methylimidazo[5,1-b][1,3,4]oxadiazol-2-yl)phenyl)-2-(4-(trifluoromethoxy)phenyl)acetamide], the half-inhibitory concentration (IC50) in assay [1] lay within 500 to 1000 nM. Moreover, in assay [2], the Abtot/Ab42 selectivity ranges result is “b (b: 100 fold > selectivity ≥ 50 fold)”.
In the case of `Cc1ncc2sc(C(=O)NCc3ccc(Oc4ccccc4)cc3)nn12` [Example 107, 5-Methyl-imidazo[5,1-b][1,3,4]thiadiazole-2-carboxylic acid 4-phenoxy-benzylamide], the IC50 in assay [1] fell in the range of 100 to 500 nM. In assay [2], the Abtot/Ab42 selectivity ranges result is given as “c (c: 50 fold > selectivity ≥ 10 fold)”.
The matching figures for `Cc1ncc2oc(-c3ccc(NC(=O)Cc4ccc(C(F)(F)F)cc4Br)cc3)nn12` [Example 5, 2-(2-Bromo-4-trifluoromethyl-phenyl)-N-[4-(5-methyl-imidazo[5,1-b][1,2,4]oxadiazol-2-yl)-phenyl]-acetamide]: 500 to 1000 nM and “c (c: 50 fold > selectivity ≥ 10 fold)”.
